Source: a melting point compilation (Tetko et al.; mined from patent text by program, amines drawn as free bases though some values may be those of a salt)

SMILES | melting point
O=C(Nc1ccc2[nH]c(=O)oc2c1)C(=O)N1CCC(Cc2ccc(C(F)(F)F)cc2)CC1 | 217 °C
CC(=O)OC[C@H]1OCC(=NO)[C@@H](OC(C)=O)[C@@H]1OC(C)=O | 90 to 92 °C
COc1cc(F)nc(N)n1 | 171 to 173 °C
NNC(=O)C(O)c1cc(F)cc(F)c1 (configuration not stated) | 119 °C
Cc1sc2c(c1C(=O)c1ccc(N(C)C)cc1)CCC2C(=O)O (configuration not stated) | 171 to 173 °C
CCC(C)(C)Nc1c(NCc2cccc(Cl)c2Cl)c(=O)c1=O | 222 to 223 °C
O=C(O)C1(CCCCCCCCCCCCC2(C(F)F)CC2)CC1 | 54 to 54.8 °C
O=C(NCc1ccccn1)c1ccc(C2=NOC(c3cc(Cl)cc(Cl)c3)(C(F)(F)F)C2)cc1C(F)(F)F (configuration not stated) | 69 to 70 °C
CC(C)(C)CC(C)(C)c1cc(-n2nc3ccc(S(=O)(=O)c4ccccc4)cc3n2)c(O)c(C(C)(C)c2ccccc2)c1 | 170 to 171 °C
CC(C)(C)OC(=O)[C@@H]1CCCN1C(=O)Cl | 89 to 92 °C
CC(C)CC(S)C(=O)NC(CC(C)C)C(=O)NC(Cc1ccc(-c2cccs2)nc1)C(=O)O (configuration not stated) | 156 to 158 °C
Cn1ncc2ccc(OCCCCl)cc2c1=O | 252 to 253 °C
CN(Cc1cccc2c1C(=O)N(C1CCC(=O)NC1=O)C2=O)C(=O)Nc1ccc(Cl)c(Cl)c1 (configuration not stated) | 255 to 257 °C
COc1cc(Cl)cc(CSCCNC(=O)c2c(Cl)cccc2Cl)c1 | 83 to 84 °C
CCCc1cccc2nc3c(=O)[nH][nH]c(=O)c3c(O)c12 | > 400 °C
COc1cc(C(C)=O)cc(Br)c1Oc1nc(C)nc(N2CCOCC2)n1 | 159 to 162 °C
Cc1cc(C=CC#N)cc(C(=O)c2c(C(C)C)c(=O)[nH]c(=O)n2CC2CC2)c1 | 225 to 226 °C
NN1CCC[C@H]1C(=O)O | 153 to 154 °C
CN(CCC1=C(C#N)C(c2cccc3nonc23)c2c[nH]nc2N1)C(=O)OC(C)(C)C (configuration not stated) | 240 °C
COC(=O)Cc1c(Cl)cc(C(=O)c2ccc(C)cc2)n1C | 144 to 146 °C
CC(C)(C)OC(=O)N1CCC(Oc2ccccc2C(C)(C)C)C1 (configuration not stated) | 81 to 82 °C
CCOC(=O)CCCSc1nccc(NC(N)=NCC(F)(F)F)n1 | 120 to 122 °C
CC[C@H](Cc1sccc1Cl)Nc1ncnc2c1ncn2[C@@H]1C[C@H](CF)[C@@H](O)[C@H]1O | 143 °C
CCCCc1nc2cnc3cccnc3c2n1CCCCNC(=O)OC(C)(C)C | 96 to 98 °C
C#CCNC1=Nc2ccc(Cl)cc2C(c2ccccc2)=NC1 | 202 °C
CSc1nc(Cl)nc2sc(C)cc12 | 111 to 112 °C
Cc1nc(N)nc(N)c1-c1cc(Cl)c([N+](=O)[O-])c(Cl)c1Cl | 313 to 315 °C
COC(=O)[C@]1(F)[C@@H]2[C@H]1C(=O)C[C@H]2O[Si](C)(C)C(C)(C)C | 70 to 71 °C

SMILES | melting point
Cc1nn(CCNS(C)(=O)=O)c(-c2ccc(F)cc2)c1-c1ccc2c(c1)NC(=O)CO2 | 220 to 221 °C
O=C1CN2C(=O)N(c3cc(Cl)cc(Cl)c3)C(=O)C2(Cc2ccc(Br)cc2)C1 (configuration not stated) | 85.4 °C
O=S(=O)(CC1CC1)c1nc[nH]n1 | 140 to 149 °C
CCOC(=O)c1[nH]c(CC)c(CC)c1CC | 47 to 49 °C
CCOC(=O)c1csc(S)n1 | 120 to 121 °C
C=CCCN(CCC=C)Cc1noc(-c2ncn3c2[C@@H]2CCN2C(=O)c2ccccc2-3)n1 | 80 to 87 °C
Cc1cc(Cl)c(C(N)=O)cc1[N+](=O)[O-] | 180 to 183 °C
CSc1ncc(Cc2cccnc2)c(=O)[nH]1 | 247 to 249 °C
Nc1nc2c(sc(=O)n2C/C=C\CCl)c(=O)[nH]1 | 200 to 202 °C
CCOC(=O)C1=C(C)NC(N=CCN(C)C)=C(C(=O)OCC)C1c1cccc([N+](=O)[O-])c1 (configuration not stated) | 172 °C
Cc1cccnc1NC(N)=S | 152 to 154 °C
N#Cc1cc(O)c(O)c(O)c1 | 219 °C
COc1c2c(c(OC)c(OC)c1OC)CCC(CCn1nnc3ccccc31)CC2 | 99 to 101 °C
CCC(C)(C(=O)c1ccc(N2CCOCC2)cc1)N1CCOCC1 (configuration not stated) | 111 to 114 °C
CCN(CC)CCC(N)=NO | 52 to 54 °C
CCOC(=O)CCNC=C(C(=O)OCC)C(=O)c1cc(F)c(Cl)c([N+](=O)[O-])c1Cl | 107 to 108 °C
O=C1Nc2ccc(Cl)cc2CN2CCCC12 (configuration not stated) | 97 to 99 °C
CCCCCCCCCCCCCCCCCCNC(=O)OCC(CNS(=O)(=O)CCCCl)OC(=O)NC (configuration not stated) | 102 to 104 °C
OCCc1nnc(S)s1 | 101 to 103 °C
CN(C)c1cccc(NC(=O)N(C[C@H]2CC[C@H](CN(C(=O)Nc3cccc(N(C)C)c3)C3CCCCCC3)CC2)C2CCCCCC2)c1 | 151 to 156 °C
Nc1ccc2c(c1)CC(N)CC2 (single isomer, unassigned; (+)) | 33 to 34 °C
O=C(O)CNC(=O)Nc1cccc([N+](=O)[O-])c1 | 217 to 218 °C
CC(C)NC(=O)N1N=C(c2ccc([N+](=O)[O-])cc2)c2cc(Cl)ccc2CC1C (configuration not stated) | 172 to 174 °C
COc1cc(C(=O)NCCc2ccc(N)cc2)cc(OC)c1OC(C)=O | 178 to 180 °C
S=C(Nc1ccc(Cl)cc1)NC1CCCCC1 | 179 to 180 °C
CC(=O)c1ccc(C(=O)O)o1 | 189 to 195 °C
CSc1nnc(C(F)(F)F)n1C | 46 °C

Results, then the molecule that gave them:

melting point | SMILES
180 to 182 °C | Cc1oc(-c2ccccc2)nc1CCOc1ccc(C[C@@H](C(=O)O)N2CCN(S(=O)(=O)c3ccccc3)CC2)cc1
113 to 115 °C | NC(c1ccccc1)c1ccc(O)cc1 (configuration not stated)
112 to 114 °C | Cc1cn(C(C)(C)C(=O)N(C)C)nc1-c1ccccc1F
215 to 216 °C | COc1ccc(NS(=O)(=O)c2ccc(N3CCNC3=O)cc2)cc1OC
166 to 167 °C | CC(Oc1ccc(NC(=O)NC(=O)c2ccccc2Cl)cc1)c1ccccc1 (configuration not stated)
96 to 97 °C | CCCc1c(OCCCOc2ccc(C#N)cc2Cl)ccc(C(C)=O)c1O
198 to 200 °C | CCOCc1nc2c(N)nc3ccccc3c2n1CCCCC(N)=O
215 to 217 °C | N#Cc1ccc2c(c1)C(C(=O)O)c1ccccc1CO2 (configuration not stated)
79 to 84 °C | COC(=O)C(NC(=O)N1C2CCC(C2)N1CC(O)C(Cc1ccccc1)NC(=O)C(NOCc1ccccn1)C(C)C)C(C)C (mixture of isomers)
122 to 125 °C | CCOC(=O)CSc1cc(Cl)nc(NCc2ccc(Cl)cc2)n1
112 °C | CC(O)COC(c1c(C(C)C)nn2ccccc12)C(C)C (configuration not stated)
159 to 160 °C | Cc1nc(N)nc(OCc2ccccc2)c1[N+](=O)[O-]
193 to 195 °C | Cc1c(C#N)cc(C(C)(C)C)c(O)c1C(=O)Nc1ccc(Sc2ccc(Cl)cc2)cc1C(F)(F)F
196 to 198 °C | Fc1cc2c(Nc3ccc(OCc4cccc(Cl)c4)c(Cl)c3)ncnc2cn1
220 to 223 °C | O=C(C1Cc2ccccc2N1c1ncccn1)N1CCCC1 (configuration not stated)
170 to 172 °C | Cc1onc(-c2ccccc2)c1-c1[nH]c2ccccc2c1CCC(=O)O
79 to 80 °C | C=CCOC(=O)c1ccc(C(=O)SCc2ccc3c(c2)C(C)(C)CCC3(C)C)cc1
235 to 240 °C | CSc1ccc2ccc3c(SC)cc(SC)c4ccc1c2c34
169 to 170 °C | O=C(O)c1ccc(NCc2sc(Cl)cc2Cl)cc1
152 to 154 °C | COC(=O)COc1ccc(-c2c3ccccc3cc3sc4cc(OCC(=O)OC)ccc4c23)cc1
205 to 209 °C | O=C(NCC1CCCO1)c1c[nH]c2ccccc2c1=O (configuration not stated)
141 to 142 °C | c1cc(CN2CCCCC2)cc(OCCNc2nc3ccccc3s2)c1
128 to 132 °C | CCC(=O)OC1C(=O)N(CCNC)c2ccc(C)cc2SC1c1ccc(C)cc1 (configuration not stated)
138 to 140 °C | CC(=O)N(CC(=O)N1c2ccccc2N(Cc2ccccc2)C(=O)[C@H]2CCC[C@H]21)C(=O)CCc1ccccc1 (relative stereo)

melting point | SMILES
243 to 244 °C | Cn1nc(O)c2ccccc2c1=O
170 °C | CC(=O)NCC1CN(c2ccc(-c3cccc(CN)c3)c(F)c2)C(=O)O1 (configuration not stated)
100 to 135 °C | CC1c2ccccc2CC(C)(O)Cc2ccccc21 (configuration not stated)
147 to 149 °C | O=C(O)COc1ccc(CCc2nc(-c3ccccc3)c(-c3ccccc3)o2)cc1
153 to 155 °C | N#Cc1cccc2c1nc(-c1c(F)cccc1F)n2Cc1c(F)cccc1F
132 to 133 °C | O=C(CCCc1c[nH]c2ccccc12)NCc1ccccc1
172 to 174 °C | FC(F)(F)c1ccc(C2CNCc3[nH]c4ccccc4c32)cc1 (configuration not stated)
194 to 195 °C | Cc1nc2c(NC(=O)C(C)(C)C)c(C(O)C=Cc3ccccc3)ccn2c1C (configuration not stated)
65 °C | CCCc1nnc(C(Cc2ccc(-c3cccc(CN(C)C(=O)c4ccccc4)c3)cc2)Nc2ccccc2C(=O)c2ccccc2)o1 (configuration not stated)
216 to 217 °C | CCn1nc2c(N)nc3ccccc3c2c1CCCCN1C(=O)c2ccccc2C1=O
222 to 223 °C | Cc1nsc(NC(=O)C(C)c2ccc(O)c(N)c2)c1Cl (configuration not stated)
172 to 180 °C | CNC(=O)NC1CCC(O)c2ccccc21 (configuration not stated)
83 to 85 °C | CCOC(=O)C(=Nc1ccc(OC)cc1)c1cccn1C
137 to 138 °C | FC(F)(F)c1ccc(-c2cc(Oc3ccc4cccnc4c3)ncn2)c(NCC2CCCCC2)c1
177 to 179 °C | O=C(O)c1ccc(OCc2ccccc2OCc2ccccc2)cc1
197 °C | O=C(NCc1cccnc1)c1ccc2n1Cc1ccccc1N(C(=O)c1ccccc1)C2
83 to 84 °C | CC(=O)NCCCCC1Cc2ccccc2C1
163 °C | CC(C)(Oc1ccc(CC(=O)Nc2ccc(Cl)cc2)cc1)C(=O)O
168 °C | Cc1cccc(CC(=O)c2ccnc(-c3ccc(OCC(N)=O)cc3)c2)n1
174 to 176 °C | COc1ccc(C(O)c2ccccn2)c(Cl)c1Cl (configuration not stated)
118 to 124 °C | Cc1cc2c(s1)Nc1ccccc1N=C2N1CCN(C)[C@@H](CO)C1
115 to 117 °C | COc1cc2ccccc2cc1N(C)C(=O)N1CCN(c2cc(F)cc(F)c2)CC1
161 to 166 °C | COc1ccc(S(=O)(=O)N2C(=O)C(c3ccccc3OC)(N3CCC[C@H]3C(=O)N3CCC3)c3cc(Cl)ccc32)c(OC)c1 (some centres not stated)
